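Dose response: 5 concentrations. Exposure: 48 h. Format: 96-well plates. Endpoint: linear interpolation; highest concentration if not reached. TGI: total growth inhibition.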
Key:
Experiment in all cases: NCI tumour cell line growth inhibition, 48 h
A549 NSCLC = system: A549 NSCLC
NCI/ADR-RES ovarian = system: NCI/ADR-RES ovarian
HCT-116 colon = system: HCT-116 colon
SK-MEL-28 melanoma = system: SK-MEL-28 melanoma
NCI-H226 lung = system: NCI-H226 lung
COLO 205 colon = system: COLO 205 colon
SK-OV-3 ovarian = system: SK-OV-3 ovarian
SW-620 colon = system: SW-620 colon
EKVX NSCLC = system: EKVX NSCLC
KM12 colon = system: KM12 colon
OVCAR-5 ovarian = system: OVCAR-5 ovarian
SNB-75 CNS = system: SNB-75 CNS
NCI-H23 lung = system: NCI-H23 lung
UO-31 renal = system: UO-31 renal
OVCAR-8 ovarian = system: OVCAR-8 ovarian
A498 renal = system: A498 renal
RPMI-8226 leukemia = system: RPMI-8226 leukemia
T-47D breast = system: T-47D breast
SR leukemia = system: SR leukemia
MCF7 breast = system: MCF7 breast
SF-268 CNS = system: SF-268 CNS
M14 melanoma = system: M14 melanoma
SK-MEL-2 melanoma = system: SK-MEL-2 melanoma
HL-60(TB) leukemia = system: HL-60(TB) leukemia
786-0 renal = system: 786-0 renal
IGROV1 ovarian = system: IGROV1 ovarian
SNB-19 CNS = system: SNB-19 CNS
MALME-3M melanoma = system: MALME-3M melanoma
OVCAR-3 ovarian = system: OVCAR-3 ovarian
MDA-MB-435 = system: MDA-MB-435
MDA-N = system: MDA-N
HS 578T breast = system: HS 578T breast
NCI-H522 lung = system: NCI-H522 lung
BT-549 breast = system: BT-549 breast
UACC-62 melanoma = system: UACC-62 melanoma
SF-539 CNS = system: SF-539 CNS
NCI-H460 lung = system: NCI-H460 lung
PC-3 prostate = system: PC-3 prostate
TK-10 renal = system: TK-10 renal
OVCAR-4 ovarian = system: OVCAR-4 ovarian
MOLT-4 leukemia = system: MOLT-4 leukemia
MDA-MB-231 breast = system: MDA-MB-231 breast
DU-145 prostate = system: DU-145 prostate
RXF 393 renal = system: RXF 393 renal
CAKI-1 renal = system: CAKI-1 renal
SF-295 CNS = system: SF-295 CNS
SK-MEL-5 melanoma = system: SK-MEL-5 melanoma
ACHN renal = system: ACHN renal
HOP-92 NSCLC = system: HOP-92 NSCLC
HCT-15 colon = system: HCT-15 colon
K-562 leukemia = system: K-562 leukemia
LOX IMVI melanoma = system: LOX IMVI melanoma
HOP-62 NSCLC = system: HOP-62 NSCLC
UACC-257 melanoma = system: UACC-257 melanoma
HT29 colon = system: HT29 colon
U251 CNS = system: U251 CNS
SN12C renal = system: SN12C renal
HCC-2998 colon = system: HCC-2998 colon
CCRF-CEM leukemia = system: CCRF-CEM leukemia

Measured: TGI

C=CCSc1nc2c(N)ncnc2n1C1OC(CO)C(O)C1O (stereo not given)
not listed: HCC-2998 colon | CCRF-CEM leukemia
> 100 µM: all other assays above

C[n+]1cn(C2=C([O-])c3ccccc3C(=O)/C2=N\S(=O)(=O)c2ccccc2)c2ccccc21
26.6 µM: MDA-N
76.4 µM: LOX IMVI melanoma
77.4 µM: OVCAR-8 ovarian
70.5 µM: TK-10 renal
37.8 µM: OVCAR-4 ovarian
78.5 µM: SNB-19 CNS
46.7 µM: HCC-2998 colon
87.3 µM: IGROV1 ovarian
44.1 µM: SK-MEL-2 melanoma
48.3 µM: M14 melanoma
34.7 µM: NCI-H23 lung
6.34 µM: MDA-MB-435
5.88 µM: MALME-3M melanoma
50.7 µM: U251 CNS
84.5 µM: NCI-H460 lung
76.6 µM: UACC-257 melanoma
26.8 µM: NCI-H522 lung
44.9 µM: OVCAR-3 ovarian
26.1 µM: COLO 205 colon
45.6 µM: UACC-62 melanoma
86.1 µM: HL-60(TB) leukemia | BT-549 breast
85.1 µM: RXF 393 renal
not listed: A498 renal
> 100 µM: all other assays above
